Values joined by “and” are separate entries in the source; they are usually repeats but may differ in a detail not shown here. Equal values may be shown once. “Also recorded” adds a separate entry of the source.
Columns and labels:
[1] = Example 2: aspect and pH of S-acid pre-solubilized with KOH (R1=2) in association with surfactants; assay type: physicochemical; conditions: for pH t0 RT / pH RT, 20 days after storage / pH T = 4° C., 20 days after storage: KOH R1=2
From the text: Solutions, containing S-acid at 4% or 8% (neutralized with an amount of KOH calculated in order to obtain the di-potassium salt of S-acid, i.e., R1=2) and surfactants, were made.

[2] = Example 1: pH and aspect of S-acid solutions neutralized with NaOH (30%) or KOH (50%), stabilized at 4° C. and RT; assay type: physicochemical; set-up: key to aspect of the solution (precipitation mark): The marked solutions (*) correspond to precipitated solutions; conditions: for pH T4° C. 24 h / pH T4° C. 30 days / pH TRT 24 h / pH TRT 30 days / pH TRT t0: R1=2
From the text: In order to neutralize spiculisporic acid (S-acid), two moles of base were used for one mole of S-acid, i.e., R1=2.
Increasing concentration ranges of S-acid from 1% to 10% were achieved, either with NaOH (solution at 30% m/m), or with KOH (solution at 50% m/m).
The solutions were made twice (A and B) in order to evaluate the reproducibility of the results. All the ranges of the neutralized solutions with both bases are limpid at t0 and the pH values obtained range from 5.19 to 6.79.
The marked solutions (*) correspond to precipitated solutions.

[3] = cited from earlier work
[4] = Example 2: pH and macroscopic observation of S-acid neutralized with NaOH (R1=1.1) with surfactants, stored at 4° C.; assay type: physicochemical; conditions: for Macroscopic observation after 12 days after storage: stored in the dark at 4° C., listed as S-acid alone
Method: Solutions, containing S-acid at 4% or 8% (neutralized with an amount of NaOH calculated in order to obtain R1=1.1) and surfactants, were made, as shown in the table below:
The solutions were prepared according to the following procedure:
S-acid aqueous solution is prepared. The base is added under stirring. The resulting mixture is stirred at 40° C. Then the surfactant is added under stirring. The solution is then stored in the dark at 4° C.

[5] = S-acid 4% MA, surfactant 4% where present
[6] = KOH solution at 50%, S-acid 1%, A and B
[7] = KOH solution at 50%, S-acid 2%, A and B
[8] = NaOH solution at 30%, S-acid 1%, A and B
[9] = NaOH solution at 30%, S-acid 2%, A and B

## CCCCCCCCCCC(C(=O)O)C1(C(=O)O)CCC(=O)O1 (centres unmarked) [S-acid, 4,5-dicarboxy-4-pentadecanolide]
[1]; S-acid 4% MA, surfactant 4% active material where present
  pH t0 RT: 5.97
[1]; [5]
  pH RT, 20 days after storage: 6.02
  pH T = 4° C., 20 days after storage: 6.01
[1]; S-acid 4%, KOH R1=2, surfactant 4% where present
  result after 20 days of storage at 4° C. (in words): precipitation
[1]; S-acid 8% MA, no surfactant
  pH RT, 20 days after storage: 6.47
  pH T = 4° C., 20 days after storage: 6.47
  pH t0 RT: 6.43
[1]; S-acid 8%, KOH R1=2, no surfactant
  result after 20 days of storage at 4° C. (in words): precipitation
[2]; [6]
  pH T4° C. 24 h: 6.09 and 5.26
  pH T4° C. 30 days: 5.86 and 5.39
  pH TRT 24 h: 6.03 and 5.28
  pH TRT 30 days: 5.69 and 5.18
  pH TRT t0: 5.93 and 5.22
[2]; [7]
  pH T4° C. 24 h: 5.48 and 5.61
  pH T4° C. 30 days: 5.46 and 5.53
  pH TRT 24 h: 5.67 and 5.59
  pH TRT 30 days: 5.39 and 5.59
  pH TRT t0: 5.4 and 5.19
[2]; KOH, S-acid 2%, 4° C. 24 h
  aspect of the solution (precipitation mark): *
[2]; KOH, S-acid 2%, 4° C. 30 days
  aspect of the solution (precipitation mark): *
[2]; KOH, S-acid 2%, RT 24 h
  aspect of the solution (precipitation mark): *
[2]; KOH, S-acid 2%, RT 30 days
  aspect of the solution (precipitation mark): *
[2]; [8]
  pH T4° C. 24 h: 5.78 and 5.49
  pH T4° C. 30 days: 5.69 and 5.41
  pH TRT 24 h: 5.78 and 5.49
  pH TRT 30 days: 5.59 and 5.42
[2]; NaOH solution at 30%, S-acid 1%, duplicate solutions A and B
  pH TRT t0: 5.66 and 5.37
[2]; [9]
  pH T4° C. 24 h: 5.7 and 5.78
  pH T4° C. 30 days: 5.72 and 5.69
  pH TRT 24 h: 5.7 and 5.74
  pH TRT 30 days: 5.64 and 5.49
[2]; NaOH solution at 30%, S-acid 2%, duplicate solutions A and B
  pH TRT t0: 5.64 and 5.6
[2]; NaOH, S-acid 2%, 4° C. 24 h
  aspect of the solution (precipitation mark): *
[2]; NaOH, S-acid 2%, 4° C. 30 days
  aspect of the solution (precipitation mark): *
[2]; NaOH, S-acid 2%, RT 30 days
  aspect of the solution (precipitation mark): *
[2]; from 2% of S-acid, both bases (NaOH, KOH)
  stability of the solutions after 30 days at 4° C.: crystallization
[3]; high temperature
  solubility in water at a high temperature: partly soluble
[3]; room temperature
  solubility in ethanol: soluble
  solubility in fats: insoluble
  solubility in water: insoluble
[4]; S-acid 4% MA, NaOH R1=1.1
  pH t0 RT: 4.89
  Macroscopic observation after 12 days after storage: precipitation; also recorded: precipitate
[4]; S-acid 8% MA, NaOH
  pH t0 RT: 5.11
  Macroscopic observation after 12 days after storage: precipitation; also recorded: precipitate
